# From ChEMBL document CHEMBL1821644, “A prodrug approach for improving antituberculosis activity of potent Mycobacterium tuberculosis type II dehydroquinase inhibitors” (J Med Chem, 2011)
# Activity calls are given as the source filed them. The calls are words filed in the database; no cut-off is given here.
# Target: T1, 3-dehydroquinate dehydratase (Helicobacter pylori (strain ATCC 700392 / 26695) (Campylobacterpylori), UniProt Q48255)
# T1 sequence (Q48255 whole entry): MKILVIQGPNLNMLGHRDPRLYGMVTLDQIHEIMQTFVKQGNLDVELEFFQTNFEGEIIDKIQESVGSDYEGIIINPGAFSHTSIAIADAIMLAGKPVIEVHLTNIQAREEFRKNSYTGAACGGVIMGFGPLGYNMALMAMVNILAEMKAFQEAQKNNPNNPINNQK
# Assay: Competitive inhibition of Helicobacter pylori DHQ2
row,Compound,Ki [nM]
1,O=C(O)[C@@]1(O)C[C@@H](O)[C@H](O)C(OCc2ccc3ccccc3c2)=C1Cc1ccc2ccccc2c1,260
2,Cc1ccc2sc(CC3=C(OCc4cccs4)[C@@H](O)[C@H](O)C[C@]3(O)C(=O)O)cc2c1,279
3,O=C(O)[C@@]1(O)C[C@@H](O)[C@H](O)C(OCc2cccs2)=C1Cc1ccc2sccc2c1,100
4,O=C(O)[C@]1(O)C=C(OCc2cc3ccc(Cl)cc3s2)[C@@H](O)[C@H](O)C1,205
5,O=C(O)[C@]1(O)C=C(OCc2ccc3ccccc3c2)[C@@H](O)[C@H](O)C1,310
6,O=C(O)[C@@]1(O)C[C@@H](O)[C@H](O)C(OCc2cccs2)=C1Cc1cccs1,14600
7,Cc1ccc2sc(COC3=C(Cc4cc5cc(C)ccc5s4)[C@@](O)(C(=O)O)C[C@@H](O)[C@@H]3O)cc2c1,50
8,O=C(O)[C@@]1(O)C[C@@H](O)[C@H](O)C(OCc2ccc3sccc3c2)=C1Cc1ccc2sccc2c1,140
9,O=C(O)[C@@]1(O)C[C@@H](O)[C@H](O)C(OCc2cc3ccc(Cl)cc3s2)=C1Cc1cc2ccc(Cl)cc2s1,6700
10,O=C(O)[C@@]1(O)C[C@@H](O)[C@H](O)C(OCc2cc3ccccc3s2)=C1Cc1cc2ccccc2s1,97
11,O=C(O)[C@@]1(O)C[C@@H](O)[C@H](O)C(OCc2cc3ccccc3s2)=C1Cc1cccs1,280

# Tested on: MRC5
# Assay: Cytotoxicity against human MRC5 at 300 to 400 ug/ml using crystal violet staining
# Assay type: cell-based
row,Compound,Activity
1,CCOC(=O)[C@]1(O)C=C(OCc2cc3ccccc3s2)[C@@H](O)[C@H](O)C1,Non-toxic
2,CCOC(=O)[C@@]1(O)C[C@@H](O)[C@H](O)C(OCc2ccc3sccc3c2)=C1Cc1ccc2sccc2c1,Non-toxic
3,COC(=O)[C@]1(O)C=C(OCc2cc3cc(C)ccc3s2)[C@@H](O)[C@H](O)C1,Non-toxic
4,CCCOC(=O)[C@]1(O)C=C(OCc2ccc3ccccc3c2)[C@@H](O)[C@H](O)C1,Non-toxic
5,COC(=O)[C@]1(O)C=C(OCc2ccc3sccc3c2)[C@@H](O)[C@H](O)C1,Non-toxic
6,CCCOC(=O)[C@]1(O)C=C(OCc2ccc3ccccc3c2)[C@@H](OC(=O)CCC)[C@H](OC(=O)CCC)C1,Non-toxic
7,CCCC(=O)O[C@@H]1C(OCc2ccc3ccccc3c2)=C[C@@](O)(C(=O)OCC)C[C@H]1O,Non-toxic
8,COC(=O)[C@@]1(O)C[C@@H](O)[C@H](O)C(OCc2cc3cc(C)ccc3s2)=C1Cc1cc2cc(C)ccc2s1,Non-toxic
9,CCCOC(=O)[C@]1(O)C=C(OCc2cc3ccc(Cl)cc3s2)[C@@H](O)[C@H](O)C1,Non-toxic
10,CCCC(=O)O[C@@H]1C(OCc2ccc3sccc3c2)=C[C@@](O)(C(=O)OCC)C[C@H]1OC(=O)CCC,Non-toxic
11,CCOC(=O)[C@]1(O)C=C(OCc2cc3ccc(Cl)cc3s2)[C@@H](O)[C@H](O)C1,Non-toxic
12,CCOC(=O)[C@@]1(O)C[C@@H](O)[C@H](O)C(OCc2cc3ccc(Cl)cc3s2)=C1Cc1cc2ccc(Cl)cc2s1,Non-toxic
13,CCOC(=O)[C@]1(O)C=C(OCc2ccc3sccc3c2)[C@@H](O)[C@H](O)C1,Non-toxic
14,COC(=O)[C@]1(O)C=C(OCc2cc3ccc(Cl)cc3s2)[C@@H](O)[C@H](O)C1,Non-toxic
15,CCCOC(=O)[C@]1(O)C=C(OCc2ccc3sccc3c2)[C@@H](OC(=O)CCC)[C@H](O)C1,Non-toxic
16,CCCOC(=O)[C@]1(O)C=C(OCc2ccc3sccc3c2)[C@@H](OC(=O)CCC)[C@H](OC(=O)CCC)C1,Non-toxic
17,CCOC(=O)[C@]1(O)C=C(OCc2ccc3ccccc3c2)[C@@H](O)[C@H](O)C1,Non-toxic
18,COC(=O)[C@@]1(O)C[C@@H](O)[C@H](O)C(OCc2cc3ccc(Cl)cc3s2)=C1Cc1cc2ccc(Cl)cc2s1,Non-toxic
19,COC(=O)[C@]1(O)C=C(OCc2cc3ccccc3s2)[C@@H](O)[C@H](O)C1,Non-toxic
20,CCCOC(=O)[C@]1(O)C=C(OCc2ccc3sccc3c2)[C@@H](O)[C@H](O)C1,Non-toxic
21,CCCC(=O)O[C@@H]1C(OCc2ccc3ccccc3c2)=C[C@@](O)(C(=O)OCC)C[C@H]1OC(=O)CCC,Non-toxic
22,CCCOC(=O)[C@]1(O)C=C(OCc2cc3ccccc3s2)[C@@H](O)[C@H](O)C1,Non-toxic

# Target: T2, 3-dehydroquinate dehydratase (Mycobacterium tuberculosis) (UniProt P9WPX7)
# T2 sequence (whole entry): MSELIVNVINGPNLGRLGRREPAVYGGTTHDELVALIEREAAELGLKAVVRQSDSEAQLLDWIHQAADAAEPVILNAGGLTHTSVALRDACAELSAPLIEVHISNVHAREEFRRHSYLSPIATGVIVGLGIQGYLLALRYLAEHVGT
# Assay: Reversible inhibition of Mycobacterium tuberculosis DHQ2
row,Compound,inhibition
1,Cc1ccc2sc(COC3=C[C@@](O)(C(=O)O)C[C@@H](O)[C@@H]3O)cc2c1,Active
2,O=C(O)[C@@]1(O)C[C@@H](O)[C@H](O)C(OCc2ccc3ccccc3c2)=C1Cc1ccc2ccccc2c1,Active
3,Cc1ccc2sc(CC3=C(OCc4cccs4)[C@@H](O)[C@H](O)C[C@]3(O)C(=O)O)cc2c1,Active
4,O=C(O)[C@]1(O)C=C(OCc2cccs2)[C@@H](O)[C@H](O)C1,Active
5,O=C(O)[C@]1(O)C=C(OCc2cc3ccccc3s2)[C@@H](O)[C@H](O)C1,Active
6,O=C(O)[C@@]1(O)C[C@@H](O)[C@H](O)C(OCc2cccs2)=C1Cc1ccc2sccc2c1,Active
7,O=C(O)[C@]1(O)C=C(OCc2cc3ccc(Cl)cc3s2)[C@@H](O)[C@H](O)C1,Active
8,O=C(O)[C@]1(O)C=C(OCc2ccc3ccccc3c2)[C@@H](O)[C@H](O)C1,Active
9,O=C(O)[C@@]1(O)C[C@@H](O)[C@H](O)C(OCc2cccs2)=C1Cc1cccs1,Active
10,O=C(O)[C@]1(O)C=C(OCc2ccc3sccc3c2)[C@@H](O)[C@H](O)C1,Active
11,Cc1ccc2sc(COC3=C(Cc4cc5cc(C)ccc5s4)[C@@](O)(C(=O)O)C[C@@H](O)[C@@H]3O)cc2c1,Active
12,O=C(O)[C@@]1(O)C[C@@H](O)[C@H](O)C(OCc2ccc3sccc3c2)=C1Cc1ccc2sccc2c1,Active
13,C=CCC1=C(OCc2cc3ccccc3s2)[C@@H](O)[C@H](O)C[C@]1(O)C(=O)O,Active
14,O=C(O)[C@@]1(O)C[C@@H](O)[C@H](O)C(OCc2cc3ccc(Cl)cc3s2)=C1Cc1cc2ccc(Cl)cc2s1,Active
15,O=C(O)[C@@]1(O)C[C@@H](O)[C@H](O)C(OCc2cc3ccccc3s2)=C1Cc1cc2ccccc2s1,Active
16,O=C(O)[C@@]1(O)C[C@@H](O)[C@H](O)C(OCc2cc3ccccc3s2)=C1Cc1cccs1,Active

# Tested on: Mycobacterium tuberculosis
# Assay: Antimicrobial activity against Mycobacterium tuberculosis H37Rv by Microplate Alamar blue assay
# Assay type: functional
row,Compound,MIC [µg/mL]
1,CCOC(=O)[C@]1(O)C=C(OCc2cc3ccccc3s2)[C@@H](O)[C@H](O)C1,40
2,CCOC(=O)[C@@]1(O)C[C@@H](O)[C@H](O)C(OCc2ccc3sccc3c2)=C1Cc1ccc2sccc2c1,160
3,COC(=O)[C@]1(O)C=C(OCc2cc3cc(C)ccc3s2)[C@@H](O)[C@H](O)C1,> 160
4,CCCOC(=O)[C@]1(O)C=C(OCc2ccc3ccccc3c2)[C@@H](O)[C@H](O)C1,10
5,COC(=O)[C@]1(O)C=C(OCc2ccc3sccc3c2)[C@@H](O)[C@H](O)C1,> 160
6,CCCOC(=O)[C@]1(O)C=C(OCc2ccc3ccccc3c2)[C@@H](OC(=O)CCC)[C@H](OC(=O)CCC)C1,5
7,CCCC(=O)O[C@@H]1C(OCc2ccc3ccccc3c2)=C[C@@](O)(C(=O)OCC)C[C@H]1O,10
8,COC(=O)[C@@]1(O)C[C@@H](O)[C@H](O)C(OCc2cc3cc(C)ccc3s2)=C1Cc1cc2cc(C)ccc2s1,> 160
9,CCCOC(=O)[C@]1(O)C=C(OCc2cc3ccc(Cl)cc3s2)[C@@H](O)[C@H](O)C1,40
10,CCCC(=O)O[C@@H]1C(OCc2ccc3sccc3c2)=C[C@@](O)(C(=O)OCC)C[C@H]1OC(=O)CCC,5
11,CCOC(=O)[C@]1(O)C=C(OCc2cc3ccc(Cl)cc3s2)[C@@H](O)[C@H](O)C1,40
12,CCOC(=O)[C@@]1(O)C[C@@H](O)[C@H](O)C(OCc2cc3ccc(Cl)cc3s2)=C1Cc1cc2ccc(Cl)cc2s1,> 160
13,CCOC(=O)[C@]1(O)C=C(OCc2ccc3sccc3c2)[C@@H](O)[C@H](O)C1,40
14,COC(=O)[C@]1(O)C=C(OCc2cc3ccc(Cl)cc3s2)[C@@H](O)[C@H](O)C1,> 160
15,CCCOC(=O)[C@]1(O)C=C(OCc2ccc3sccc3c2)[C@@H](OC(=O)CCC)[C@H](O)C1,5
16,CCCOC(=O)[C@]1(O)C=C(OCc2ccc3sccc3c2)[C@@H](OC(=O)CCC)[C@H](OC(=O)CCC)C1,20
17,CCOC(=O)[C@]1(O)C=C(OCc2ccc3ccccc3c2)[C@@H](O)[C@H](O)C1,20
18,COC(=O)[C@@]1(O)C[C@@H](O)[C@H](O)C(OCc2cc3ccc(Cl)cc3s2)=C1Cc1cc2ccc(Cl)cc2s1,80
19,COC(=O)[C@]1(O)C=C(OCc2cc3ccccc3s2)[C@@H](O)[C@H](O)C1,> 160
20,CCCOC(=O)[C@]1(O)C=C(OCc2ccc3sccc3c2)[C@@H](O)[C@H](O)C1,20
21,CCCC(=O)O[C@@H]1C(OCc2ccc3ccccc3c2)=C[C@@](O)(C(=O)OCC)C[C@H]1OC(=O)CCC,5
22,CCCOC(=O)[C@]1(O)C=C(OCc2cc3ccccc3s2)[C@@H](O)[C@H](O)C1,5

# Target: T3, 3-dehydroquinate dehydratase (Mycobacterium tuberculosis, UniProt P9WPX7)
# T3 sequence (P9WPX7 whole entry): T2 sequence (whole entry)
# Assay: Competitive inhibition of Mycobacterium tuberculosis DHQ2
row,Compound,Ki [nM]
1,O=C(O)[C@@]1(O)C[C@@H](O)[C@H](O)C(OCc2ccc3ccccc3c2)=C1Cc1ccc2ccccc2c1,6000
2,Cc1ccc2sc(CC3=C(OCc4cccs4)[C@@H](O)[C@H](O)C[C@]3(O)C(=O)O)cc2c1,870
3,O=C(O)[C@]1(O)C=C(OCc2cccs2)[C@@H](O)[C@H](O)C1,235
4,O=C(O)[C@]1(O)C=C(OCc2cc3ccccc3s2)[C@@H](O)[C@H](O)C1,28
5,O=C(O)[C@]1(O)C=C(/C=C/COc2ccc(F)cc2)[C@@H](O)[C@H](O)C1,120
6,O=C(O)[C@@]1(O)C[C@@H](O)[C@H](O)C(OCc2cccs2)=C1Cc1ccc2sccc2c1,59
7,O=C(O)[C@]1(O)C=C(OCc2cc3ccc(Cl)cc3s2)[C@@H](O)[C@H](O)C1,35
8,O=C(O)[C@]1(O)C=C(OCc2ccc3ccccc3c2)[C@@H](O)[C@H](O)C1,35
9,O=C(O)[C@@]1(O)C[C@@H](O)[C@H](O)C(OCc2cccs2)=C1Cc1cccs1,5100
10,O=C(O)[C@]1(O)C=C(c2cccs2)[C@@H](O)[C@H](O)C1,250
11,O=C(O)[C@@]1(O)C[C@@H](O)[C@H](O)C(OCc2cc3ccc(Cl)cc3s2)=C1Cc1cc2ccc(Cl)cc2s1,1100
12,O=C(O)[C@@]1(O)C[C@@H](O)[C@H](O)C(OCc2cc3ccccc3s2)=C1Cc1cc2ccccc2s1,40

# Target: T4, 3-dehydroquinate dehydratase (Helicobacter pylori (strain ATCC 700392 / 26695) (Campylobacterpylori)) (UniProt Q48255)
# T4 sequence (whole entry): T1 sequence (Q48255 whole entry)
# Assay: Reversible inhibition of Helicobacter pylori DHQ2
row,Compound,inhibition
1,Cc1ccc2sc(COC3=C[C@@](O)(C(=O)O)C[C@@H](O)[C@@H]3O)cc2c1,Active
2,O=C(O)[C@@]1(O)C[C@@H](O)[C@H](O)C(OCc2ccc3ccccc3c2)=C1Cc1ccc2ccccc2c1,Active
3,Cc1ccc2sc(CC3=C(OCc4cccs4)[C@@H](O)[C@H](O)C[C@]3(O)C(=O)O)cc2c1,Active
4,O=C(O)[C@]1(O)C=C(OCc2cccs2)[C@@H](O)[C@H](O)C1,Active
5,O=C(O)[C@]1(O)C=C(OCc2cc3ccccc3s2)[C@@H](O)[C@H](O)C1,Active
6,O=C(O)[C@@]1(O)C[C@@H](O)[C@H](O)C(OCc2cccs2)=C1Cc1ccc2sccc2c1,Active
7,O=C(O)[C@]1(O)C=C(OCc2cc3ccc(Cl)cc3s2)[C@@H](O)[C@H](O)C1,Active
8,O=C(O)[C@]1(O)C=C(OCc2ccc3ccccc3c2)[C@@H](O)[C@H](O)C1,Active
9,O=C(O)[C@@]1(O)C[C@@H](O)[C@H](O)C(OCc2cccs2)=C1Cc1cccs1,Active
10,O=C(O)[C@]1(O)C=C(OCc2ccc3sccc3c2)[C@@H](O)[C@H](O)C1,Active
11,Cc1ccc2sc(COC3=C(Cc4cc5cc(C)ccc5s4)[C@@](O)(C(=O)O)C[C@@H](O)[C@@H]3O)cc2c1,Active
12,O=C(O)[C@@]1(O)C[C@@H](O)[C@H](O)C(OCc2ccc3sccc3c2)=C1Cc1ccc2sccc2c1,Active
13,C=CCC1=C(OCc2cc3ccccc3s2)[C@@H](O)[C@H](O)C[C@]1(O)C(=O)O,Active
14,O=C(O)[C@@]1(O)C[C@@H](O)[C@H](O)C(OCc2cc3ccc(Cl)cc3s2)=C1Cc1cc2ccc(Cl)cc2s1,Active
15,O=C(O)[C@@]1(O)C[C@@H](O)[C@H](O)C(OCc2cc3ccccc3s2)=C1Cc1cc2ccccc2s1,Active
16,O=C(O)[C@@]1(O)C[C@@H](O)[C@H](O)C(OCc2cc3ccccc3s2)=C1Cc1cccs1,Active
